We go through two molecules from patent US20240316012A1, “METHODS FOR TREATING LYMPHOMA” (Northwestern University, priority 2023, published 2024).

For assay [1], the system named is PDCD1-mutant lymphoma cells (primary CTCL). As to the kind of experiment: Inhibitor treatment of human cells in vitro, division index, PDCD1-mutant CTCL cells. The format is cell-based. The settings on record: 2-DG 1 mM, everolimus 0.1 μM, BMS-303141 10 μM; anti-CD3/anti-CD28 beads, 6 days; FIG. 7E. The method, then: (§1) FIGS. 7A-7H show ACLY dependency and AP-1 activation in human PDCD1 defective T-NHL. […] CNA, copy number aberrations. FIG. 7B GSEA for the indicated gene sets based on RNA-seq data from the 21 CTCL patients shown in (a). NES, normalized enrichment score; FDR, false discovery rate. […] P=one-way ANOVA and two-sided Student's t-test. Shown are the mean±SD and individual data points. […] FACS-sorted malignant cells were stimulated with anti-CD3/anti-CD28 beads, and 2-NBDG uptake was determined at the indicated time points. P=two-sided Student's t-test. Shown are the mean±SEM and individual data points. […] CFSE, carboxyfluorescein succinimidyl ester. P=two-sided Student's t-test. The data are presented as the mean±SEM and individual data points. […] Legend as in (5a). […] FIG. 7H GSEA for the indicated gene sets with RNA-seq data from 21 CTCL PDCD1mut” or “PDCD1 wt, and three patients with hyperprogression. NES, normalized enrichment score; FDR, false discovery rate. FIGS. 7A and 7B, Data from a single experiment with 21 patients. FIGS. 7C and 7D, Data from one experiment with three patients per group and three healthy donors. FIG. 7E, Data from one experiment with three patients and three healthy donors. FIGS. 7F and 7G, Data from one experiment with three patients per group. FIG. 7H, Data from a single experiment.
(§2) Isolation of primary human CTCL cells. This study was approved by the Northwestern University Institutional Review Board. Patients provided informed consent for inclusion in the study. […] The tumor burden for each patient was determined using well-validated clinical markers, taking whichever value was higher between Sezary cell counts or the CD26 negative cell number by clinical flow cytometry. These were analyzed in conjunction with white blood cell and absolute lymphocyte counts.
(§3) Inhibitor treatment of human cells in vitro Malignant CTCL cells and CD4^+ T cells from healthy donors were isolated as previously described. […] After 6 days, the cells were analyzed by flow cytometry, and the division index was determined using the FlowJo proliferation tool (v10.6, FlowJo LLC).

Assay [2] deals with PD-1 wild-type tumors (primary CTCL). As to the kind of experiment: Inhibitor treatment of human cells in vitro, division index, PD-1 wild-type CTCL cells. It is filed as cell-based. The settings on record: 2-DG 1 mM, everolimus 0.1 μM, BMS-303141 10 μM; 6 days; FIG. 7E. As to the method:
as §1, §2, §3

The structures appear in SMILES notation.

With `O=CC[C@@H](O)[C@H](O)[C@H](O)CO` [2-DG, 2-deoxy-D-glucose], in assay [1], the “viability, division and proliferation of PDCD1-mutant cancer cells (relative division index)” value is on record as “significantly impaired cell proliferation”. The “response of stage-matched PD-1 wild-type tumors (relative division index)” value in assay [2] is listed as “resistant”.

For `COc1ccc(-c2ccccc2)cc1NS(=O)(=O)c1cc(Cl)cc(Cl)c1O` [BMS-303141], the “viability, division and proliferation of PDCD1-mutant cancer cells (relative division index)” value in assay [1] is “significantly impaired cell proliferation”. For the same molecule, the “response of stage-matched PD-1 wild-type tumors (relative division index)” value in assay [2] is reported as “resistant”.
